# Experiments:
# Format in all cases: cell-based
# [1] = tested on: E. coli; experiment: PCR of extracted DNA with 16SrDNA specific primers, with vs without antibiotic (no EMA); settings: ampicillin-susceptible E. coli, 1×10^6 cells/mL, ampicillin 100 μg/mL, 37° C.
# Method: (§1) Overnight E. coli culture that was susceptible to ampicillin was further sub-cultured for 2-3 hours to log phase. Cells in this culture were quantified using OD600nm values. The culture was diluted to 1×10^6 cells/mL and 10 mL was aliquoted into two, 50 ml conical flask. Ampicillin at 100 μg/mL was added to one of the conical flasks. The two flasks, with and without antibiotic were incubated at 37° C. and two, 50 μL aliquots were taken from each flask at regular intervals (0, 30, 40 and 60 mins). Nucleic acid (NA) was extracted from all sample aliquots using the VERSANT® brand Sample preparation 1.0 reagent kit. The NA samples were then subjected to PCR and RT-PCR (reverse transcription-PCR) using 16SrDNA specific primers (each DNA extracted sample was split into two replicates for PCR). […] In this experiment, all RNA samples were treated with DNAse for 60 min at 37° C. before RT-PCR. In a subsequent experiment it was shown that a treatment as low as 5 minutes was also sufficient to eliminate DNA from the sample.
# Overnight E. coli culture that was susceptible to ampicillin was further sub-cultured for 2-3 hours to log phase. Cells in this culture was quantified using OD600nm values. The culture was diluted to 1×10^6 cells/mL and 10 mL was aliquoted into two, 50 ml conical flasks. Ampicillin at 100 μg/mL was added to one of the conical flasks. […]
# [2] = tested on: E. coli; experiment: RT-PCR of extracted RNA with 16SrDNA specific primers, with vs without antibiotic; settings: ampicillin-susceptible E. coli, 1×10^6 cells/mL, ampicillin 100 μg/mL, 37° C., 60 minutes; FIG. 10 table 1
# Method: as §1
# [3] = tested on: E. coli; experiment: EMA (ethidium monoazide) + blue light treatment followed by PCR with 16SrDNA specific primers, with vs without antibiotic
# Method: FIG. 3 illustrates a method of determining antibiotic susceptibility of micro-organisms, according to yet another embodiment. At step 301, the sample comprising the micro-organism is received. At step 302, at least one first portion of the sample is incubated with an antibiotic and at least one second portion of the sample is incubated with no antibiotic. The micro-organisms in the sample are required to be grown/cultured or incubated for the shortest possible time in which discernible nucleic acid differences can be measured. For example, the micro-organisms are cultured or incubated for a range of at least one to five doubling cycles. Antibiotics which are cell wall synthesis inhibitors (beta lactam) and cell membrane inhibitors (colistin) affect the integrity of cell wall of the micro-organisms. This facilitates determination of antibiotic susceptibility. Once the doubling cycle range is met for the at least one first and second portion of the sample, at step 303, an intercalating dye is introduced to the at least one first portion of the sample and the at least one second portion of the sample. […]
# Overnight E. coli culture that was susceptible to ampicillin was further sub-cultured for 2-3 hours to log phase. Cells in this culture was quantified using OD600nm values. […]
structure (smiles),measurement,setting,value
CC1(C)S[C@@H]2[C@H](NC(=O)[C@H](N)c3ccccc3)C(=O)N2[C@H]1C(=O)O [ampicillin],distinction of antibiotic and no antibiotic samples by DNA levels,"[1]; 60 min incubation, FIG. 10 table 2",did not distinguish antibiotic and no antibiotic samples
same,"difference in Ct between ampicillin exposed and unexposed, samples not exposed to EMA+blue light","[1]; up to 30 mins, no EMA, FIG. 14 table 2",did not show any difference
same,detection of ampicillin susceptibility by RNA levels,[2],able to detect for ampicillin susceptibility at 60 minutes
same,effect of including EMA on the difference in cycle threshold values between first (ampicillin) and second (no ampicillin) portion,"[3]; FIG. 4, graph 402 (ampicillin and EMA) vs graph 401 (ampicillin only)",improves the difference in the cycle threshold values
same,"difference in Ct between ampicillin exposed and unexposed, samples exposed to EMA","[3]; ampicillin-susceptible E. coli, 1×10^6 cells/mL, ampicillin 100 μg/mL, 37° C., within 30 minutes, EMA + blue LED light, FIG. 14 table 1",large difference in Ct
